We go through two compounds from ChEMBL document CHEMBL4330083, “Synthesis and evaluation of isoprenylation-resveratrol dimer derivatives against Alzheimer's disease” (Eur J Med Chem, 2019).

In series [1] the test system is PC-12. Briefly: Neuroprotection against H2O2-induced oxidative damage in rat PC12 cells assessed as intracellular Ca2+ level by measuring mean fluorescence intensity at 5 uM after 24 hrs in presence of H2O2 by Fluo-3/AM staining based flow cytometric analysis (reference value: 43156). Format: functional.
The subject of series [2] is PC-12. Briefly: Neuroprotection against oligomycin A-induced cell death in rat PC12 cells preincubated for 4 hrs followed by oligomycin A addition measured after 24 hrs by MTT assay. In kind it is functional, cell-based.
The subject of series [3] is PC-12. Briefly: Neuroprotection against H2O2-induced oxidative damage in rat PC12 cells assessed as late apoptotic cells at 5 uM after 24 hrs in presence of H2O2 by annexin V-FITC/propidium iodide staining based flow cytometric analysis (reference value: 29.8%). Format: functional.
The species named for series [4] is Homo sapiens. Briefly: Neuroprotection against LPS-induced inflammation in […] cells assessed as reduction in nitric oxide production at 10 to 25 uM after 18 hrs by Griess reagent based assay. In kind it is functional, cell-based.
Series [5] addresses T1, Amine oxidase [flavin-containing] A (Homo sapiens, UniProt P21397).
T1 sequence (P21397 whole entry): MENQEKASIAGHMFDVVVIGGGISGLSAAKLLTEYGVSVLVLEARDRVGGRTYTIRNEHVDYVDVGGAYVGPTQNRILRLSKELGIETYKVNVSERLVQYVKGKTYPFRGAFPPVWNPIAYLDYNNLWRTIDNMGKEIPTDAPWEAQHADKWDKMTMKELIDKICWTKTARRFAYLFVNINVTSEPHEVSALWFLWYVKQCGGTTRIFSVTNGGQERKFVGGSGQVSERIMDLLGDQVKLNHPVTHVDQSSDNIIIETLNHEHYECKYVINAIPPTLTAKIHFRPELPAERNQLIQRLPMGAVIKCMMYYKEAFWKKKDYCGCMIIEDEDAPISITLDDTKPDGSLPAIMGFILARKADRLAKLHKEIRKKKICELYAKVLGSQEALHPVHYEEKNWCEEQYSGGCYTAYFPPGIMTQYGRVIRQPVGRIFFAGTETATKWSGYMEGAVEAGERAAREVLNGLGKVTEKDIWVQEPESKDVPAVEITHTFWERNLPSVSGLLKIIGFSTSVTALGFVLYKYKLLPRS
Kind of series: Inhibition of human MAO-A preincubated for 15 mins followed by p-tyramine substrate addition and measured after 20 mins by Amplex red reagent based fluorescence assay.

Series [6] concerns PC-12. Briefly: Neuroprotection against rotenone-induced cell death in rat PC12 cells preincubated for 4 hrs followed by rotenone addition measured after 24 hrs by MTT assay. Format: functional, cell-based.
Series [7] can be described thus: Antioxidant activity assessed as ferric ion reduction by measuring trolox equivalents after 3 to 5 mins by FRAP assay. Format: functional.
The species entered for series [8] is Homo sapiens. Kind of series: Neuroprotection against LPS-induced inflammation in […] cells assessed as reduction in ROS production after 18 hrs by DCFH-DA staining-based flow cytometric analysis. Format: functional, cell-based.
The species named for series [9] is Homo sapiens. Kind of series: Antiinflammatory activity in […] cells assessed as inhibition of LPS-induced TNF-alpha release preincubated for 1 hr followed by LPS addition measured after 18 hrs by ELISA. Format: functional, cell-based.
Series [10] deals with PC-12. Briefly: Neuroprotection against H2O2-induced oxidative damage in rat PC12 cells assessed as necrotic cells at 2.5 uM after 24 hrs in presence of H2O2 by annexin V-FITC/propidium iodide staining based flow cytometric analysis (reference value: 4.5%). Format: functional.
A short description of series [11]: Antioxidant activity assessed as inhibition of DPPH free radical after 30 mins by UV-Visible spectrophotometric analysis. Format: functional.
Series [12] relates to PC-12. Briefly: Neuroprotection against H2O2-induced oxidative damage in rat PC12 cells assessed as reduction in ROS production preincubated for 4 hrs followed by H2O2 addition and measured after 24 hrs by DCFH-DA staining-based flow cytometric analysis. In kind it is functional, cell-based.
The species entered for series [13] is Homo sapiens. Kind of series: Selectivity ratio of IC50 for human MAO-A to IC50 for human MAO-B.
Series [14] is described as follows: Antioxidant activity assessed as ABTS radical cation scavenging activity by measuring trolox equivalents after 150 mins. Format: functional.
In series [15] the test system is PC-12. Kind of series: Neurotoxicity in rat PC12 cells at 30 uM after 24 hrs by MTT assay. In kind it is toxicity, cell-based. The conditions noted are these: pc-12, 24 h.
For series [16], the system named is PC-12. Kind of series: Neuroprotection against H2O2-induced oxidative damage in rat PC12 cells assessed as early apoptotic cells at 5 uM after 24 hrs in presence of H2O2 by annexin V-FITC/propidium iodide staining based flow cytometric analysis (reference value: 2.1%). Format: functional.
A short description of a further series: in vitro. Also on record: dose or concentration left out as unconfirmed. Particulars: PAMPA.
Series [17] addresses T2, Amine oxidase [flavin-containing] B (Homo sapiens, UniProt P27338).
T2 sequence (P27338 whole entry): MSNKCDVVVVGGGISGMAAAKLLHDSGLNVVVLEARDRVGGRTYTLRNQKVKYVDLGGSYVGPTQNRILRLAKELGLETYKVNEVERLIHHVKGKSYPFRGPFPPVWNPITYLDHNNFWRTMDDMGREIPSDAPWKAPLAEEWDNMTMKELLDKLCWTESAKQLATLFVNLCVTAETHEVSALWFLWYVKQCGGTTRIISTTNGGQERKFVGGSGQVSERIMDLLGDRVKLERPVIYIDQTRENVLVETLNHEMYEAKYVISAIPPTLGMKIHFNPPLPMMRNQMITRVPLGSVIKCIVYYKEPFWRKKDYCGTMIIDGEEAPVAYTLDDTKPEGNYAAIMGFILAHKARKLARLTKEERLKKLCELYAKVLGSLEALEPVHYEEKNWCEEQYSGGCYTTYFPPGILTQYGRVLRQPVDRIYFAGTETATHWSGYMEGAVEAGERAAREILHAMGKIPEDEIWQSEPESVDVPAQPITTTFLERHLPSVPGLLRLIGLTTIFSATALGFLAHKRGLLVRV

The test system of series [18] is PC-12. Briefly: Neuroprotection against H2O2-induced cell death in rat PC12 cells at 6.25 to 25 uM preincubated for 4 hrs followed by H2O2 addition measured after 24 hrs by MTT assay. In kind it is functional, cell-based.
In series [19] the test system is PC-12. Kind of series: Neuroprotection against H2O2-induced oxidative damage in rat PC12 cells assessed as viable cells at 5 uM after 24 hrs in presence of H2O2 by annexin V-FITC/propidium iodide staining based flow cytometric analysis (reference value: 64.1%). In kind it is functional. The conditions noted are these: PC-12, 24 h, read-out: Activity.
Series [20] relates to PC-12. Kind of series: Neuroprotection against H2O2-induced oxidative damage in rat PC12 cells assessed as late apoptotic cells at 5 uM after 24 hrs in presence of H2O2 by annexin V-FITC/propidium iodide staining based flow cytometric analysis (reference value: 6.2%). In kind it is functional.
Series [21] has as its system PC-12. Briefly: Neuroprotection against H2O2-induced oxidative damage in rat PC12 cells assessed as increase in mitochondrial membrane potential at 2.5 to 10 uM after 24 hrs in presence of H2O2 by JC-1 staining based flow cytometric analysis. In kind it is functional, cell-based.
Series [22] relates to PC-12. Kind of series: Neuroprotection against H2O2-induced oxidative damage in rat PC12 cells assessed as early apoptotic cells at 5 uM after 24 hrs in presence of H2O2 by annexin V-FITC/propidium iodide staining based flow cytometric analysis (reference value: 29.3%). In kind it is functional.
Series [23] is described as follows: Neuroprotection against H2O2-induced inflammation in […] cells assessed as reduction in ROS production by measuring mean fluorescence intensity at 5 uM after 18 hrs by DCFH-DA staining-based flow cytometric analysis (reference value: 20004). Format: functional.

The source made the active and inactive calls. No cut-off for these calls is given here.

Description for in vitro: Effective permeability of the compound at 100 mg/ml incubated for 16 hrs by PAMPA-BBB assay

In the case of `CC(C)=CCc1c(O)cc(/C=C/c2ccc3c(c2)[C@H](c2cc(O)c4c(c2)OC(C)(C)CC4)[C@@H](c2ccc(O)cc2)O3)cc1O`, in the series with PC-12 [1], the Flu intensity was found to be 37986. In addition, the Activity result with PC-12 [2] is “Dose-dependent effect”; in the series on PC-12 [3], 12.4%; with PC-12 [6], “Dose-dependent effect”; in series [7] it was 1.97 equiv; in the series listed under Homo sapiens [8], “Dose-dependent effect”; with PC-12 [10] it was 4.8%. In addition, the Activity result was “Dose-dependent effect” with PC-12 [12], 1.7 equiv in [14], “Non-Toxic” with PC-12 [15] and 1.9% in the series on PC-12 [16]. The outcome in the series listed under Homo sapiens [4] and in the series with PC-12 [18] was Active. Further, the IC50 in series [5] came to 8.12 µM; in series [11] it was 35.3 µM; in series [17] it was 3.93 µM. In addition, the inhibition result in the series filed under Homo sapiens [9] is “Dose-dependent effect”. In addition, the Ratio IC50 in the series listed under Homo sapiens [13] was determined as 2.07. The compound further showed a Papp at 16 h in the series “in vitro” of 6.92 ×10⁻⁶ cm/s.

Turning to `CC(C)=CCc1c(O)cc(/C=C/c2ccc3c(c2)[C@H](c2cc(O)c(CC=C(C)C)c(O)c2)[C@@H](c2ccc(O)cc2)O3)cc1O`, the viability at 5 µM with PC-12 [19] worked out at 82.2%. The Activity entry with PC-12 [2] is “Dose-dependent effect”; in the series with PC-12 [6], “Dose-dependent effect”; in the series with PC-12 [20], 4%; in [7], 1.74 equiv; in the series listed under Homo sapiens [8], “Dose-dependent effect”; in the series on PC-12 [22] it was 13.1%. For the same compound, the Activity entry in the series with PC-12 [12] is “Dose-dependent effect”; in series [14], 1.43 equiv; with PC-12 [15], “Non-Toxic”. Also, the result in the series filed under Homo sapiens [4], in the series with PC-12 [21] and with PC-12 [18] was Active. Besides, the IC50 in [5] was determined as 2.6 µM; in series [11], 47 µM; in [17] it was 0.92 µM. In addition, the inhibition entry in the series listed under Homo sapiens [9] is “Dose-dependent effect”. The Ratio IC50 in the series listed under Homo sapiens [13] was determined as 2.83. In addition, in “in vitro”, the Papp at 16 h worked out at 10.1 ×10⁻⁶ cm/s. Besides, the Flu intensity in series [23] was 11602.
